According to US20060182763A1, “CD8 T cell epitopes in HPV 16 E6 and E7 proteins and uses thereof” (priority 2005, published 2006):
“Also recorded” adds a separate entry of the source. Where no end group is shown, it is not given here.

Tests used:
Assay type in all cases: cell-based, human
T cell clones [1] = experiment: IFN-γ ELISPOT of T cell clones with peptides and autologous EBV-LCL; details: for ELISPOT response of T cell clones: subject 5 clones #1-5 and #17-5; for ELISPOT response (spot forming units) of T cell clones: 10 μM; for ELISPOT response (spot-forming units) of T cell clones: subject 15 clones specific for E6 26-40, peptides 10 μM; for T cell clones positive in screening ELISPOT: 94 out of 400 clones screened; for retest of screen-positive T cell clones (ELISPOT): 1000 T cell clone cells in duplicate; for ELISPOT response of 27G6 clone: subject 1, E7-specific clone
Method: A method described previously was used with some modifications (Larsson, M. et al., 2002). Briefly, a 96-well plate (Millititer, Millipore, Bedford, Mass.) was coated with 5μg/ml primary anti-γ-IFN monoclonal antibody (Mabtech, Stockholm, Sweden) and stored at 4° C. overnight. The plate was then washed 4 times with phosphate buffered saline (PBS) and blocked using RPMI 1640 plus 5% pooled human serum for 1 h at 37° C.
To examine the pattern of CD8 T cell epitopes (FIG. 1), 1×10^5cells of a CD8 T cell line were plated in each well. Overlapping 15-mer peptides (overlapping by the 10 central amino acids) were pooled to 10 groups (each group containing 3 peptides) and tested in duplicate (10 μM for each peptide) along with no peptide control. For screening T cell clones, 50 μl of culture media containing the T cell clones was added with 1×10^5 autologous Epstein-Barr virus-transformed B lymphoblastoid cell line (EBV-LCL) cells (data not shown). With the remaining experiments using T cell clones, 1×10^3 T cell clones were plated along with 1×10^5EBV-LCL cells to reduce the number of T cell clones necessary for analysis. All peptides were used at a concentration of 10 μM.
Autologous EBV-LCL cells were incubated with E6-vac, E7-vac or WR at the multiplicity of infection of 10 for 1 h at 37° C. prior to being plated (FIG. 2B). Phytohemagglutinin (PHA) at 10 μg/ml was added as positive control. After a 24 h incubation at 37° C., the plate was washed 4 times with PS plus 0.05% Tween-20. A total of 50 μl of secondary antibody (1 μg/ml biotin-conjugated anti-IFNγ monoclonal antibody; Mabtech) was added and the plate was incubated for 2 h at 37° C. The plate was then washed 4 times with PBS plus 0.1% Tween-20. Avidin-bound biotinylated horseradish peroxidase H (Vectastain Elite kit; Vector laboratories, Inc., Burligame, Calif.) was added […] and air-dried overnight. Spot forming units were counted using an automated ELISPOT analyzer (Cell Technology, Inc., Jessup, Md.) and were normalized to number of spot forming units per 1×10^6 cells for CD8 T cell lines. Response was considered positive when the number of spot forming units in wells with peptide pools was at least double that seen in the no peptide control wells.
To isolate T cell clones recognizing the E6 antigenic epitope from subject 15, their CD8 T cell lines were stimulated as described above for two additional 7-day cycles, so the frequency of targeted T cell clones would be above the threshold of selection (≧0.1%). The peptide-specific T cells were positively selected using the IFN-γ secretion assay enrichment kit, according to the manufacturer's instructions (Miltenyi Biotec), after stimulating cells with 10 μM each of peptides contained in the E6 16-40 (SEQ ID NO. 36) pool. Selected cells were plated at a concentration of 0.5 cells per well in the presence of a 0.5× feeder cell mixture (Yssel's media containing 1% pooled human serum, penicillin G 100 units/ml, streptomycin 100 μg/ml, 5×10^5/ml irradiated allogenic PBMC, 5×10^4/ml irradiated JY cells, 0.1 μg/ml PHA, with/without 10 u/ml rIL-4). Control wells for growth contained 1 to 1000 cells per well. On day 5, 100 μl of Yssel's media containing 20 U/ml of rIL-2 was added to each well. Growing microcultures were transferred to 24-well plates containing 1 ml of 1× feeder cell mixture per well (Yssel's media containing 1% pooled human serum, penicillin G 100 units/ml, streptomycin 100 μg/ml, 1×10^6/ml irradiated allogenic PBMC, 1×10^5/ml irradiated JY cells and 0.1 μg/ml PHA).
All peptides were used at a concentration of […] and 1×10^3 T cell clones along with 1×10^5 autologous LCL cells were plated to each well.

T cell clones [2] = experiment: ELISPOT with E6-vac/E7-vac-infected autologous EBV-LCL (naturally processed epitope); details: subject 5 clones #1-5 and #17-5
CD8 T cell line = experiment: IFN-γ ELISPOT of CD8 T cell lines with pooled overlapping 15-mer peptides; set-up: key to CD8 T cell response to HPV 16 E6 region: The strongest T cell response for a given subject is indicated with upper case X; x: subdominant response is indicated with lower case X; details: pooled 15-mer peptides, 10 μM each
[3] = subject 20 clones #60-20, #127-20, #138-20
[4] = subject 20, E6 16-40 region (eight clones), E6 31-55 region (four clones)

## E6 141-155: HPV16 E6 15-mer peptide, residues 141-155 (GRCMSCCRSSRTRRE; Human Papilloma Virus 16; CHAIN residues 141-155 of the E6 protein)
T cell clones [1]; subject 5
  screen-positive T cell clones positive for the 15-mer peptide on retest: Two
T cell clones [1]
  ELISPOT response of T cell clones: confirmed
T cell clones [2]
  recognition of E6-vac infected autologous LCL / natural processing: not with E6-vac infected autologous LCL; also recorded: not the E6-vac infected ones

## E6 32-38: HPV16 E6 7-mer, residues 32-38 (DIILECV; Human Papilloma Virus 16; CHAIN residues 32-38 of the E6 protein)
T cell clones [1]; [3]
  ELISPOT response (spot forming units) of T cell clones: Less number of spot forming units

## TTIHDIILEC (Human Papilloma Virus 16; CHAIN residues 28-37 of the E6 protein) [E6 28-37]
T cell clones [1]
  ELISPOT response (spot-forming units) of T cell clones: similar

## E6 143-153: HPV16 E6 11-mer, residues 143-153 (CMSCCRSSRTR; Human Papilloma Virus 16; CHAIN residues 143-153 of the E6 protein)
T cell clones [1]
  ELISPOT response of T cell clones: None of the 9-mers and the 11-mers was positive

## QLCTELQTTIHDIIL (QLCTELETTIHDIIL; Human Papilloma Virus 16; CHAIN residues 21-35 of the E6 protein) [E6 21-35]
T cell clones [1]; subject 15
  T cell clones positive in screening ELISPOT: three
  retest of screen-positive T cell clones (ELISPOT): negative; also recorded: false positives

## E6 91-115: pool of three overlapping 15-mers covering HPV16 E6 91-115 (YGTTLEQQYNKPLCDLLIRCINCQK; cysteine pairing not given here; also: pool of overlapping 15-mers)
CD8 T cell line; Subject 18
  CD8 T cell response to HPV 16 E6 region: X

## DFAFRDLCIVY (Human Papilloma Virus 16; CHAIN residues 51-61 of the E6 protein) [E6 51-61]
T cell clones [1]; subject 7 subdominant epitope, clones #15-7, #41-7, #54-7, #86-7
  ELISPOT response (spot forming units) of T cell clones: more number of spot forming units

## LQTTIHDIILECVYC (Human Papilloma Virus 16; CHAIN residues 26-40 of the E6 protein) [E6 26-40]
T cell clones [1]; subject 5
  screen-positive T cell clones positive for the 15-mer peptide on retest: none of 5
T cell clones [1]; subject 7, of 10 (E6 16-40 region) or six (E6 46-70 region) clones
  screen-positive T cell clones positive for the 15-mer peptide on retest: 10 clones
T cell clones [1]; subject 15
  T cell clones positive in screening ELISPOT: Thirteen
  retest of screen-positive T cell clones (ELISPOT): confirming their specificity
T cell clones [1]; subject 15, listed as E6 24-60
  retest of screen-positive T cell clones (ELISPOT): confirmed
T cell clones [1]; subject 15, of 14 clones positive for E6 16-40 region
  screen-positive T cell clones positive for the 15-mer peptide on retest: 10 clones
T cell clones [1]
  ELISPOT response (spot-forming units) of T cell clones: similar
T cell clones [1]; [4]
  screen-positive T cell clones positive for the 15-mer peptide on retest: eight

## E6 142-152: HPV16 E6 11-mer, residues 142-152 (RCMSCCRSSRT; Human Papilloma Virus 16; CHAIN residues 142-152 of the E6 protein)
T cell clones [1]
  ELISPOT response of T cell clones: None of the 9-mers and the 11-mers was positive

## E6 144-154: HPV16 E6 11-mer, residues 144-154 (MSCCRSSRTRR; Human Papilloma Virus 16; CHAIN residues 144-154 of the E6 protein)
T cell clones [1]
  ELISPOT response of T cell clones: None of the 9-mers and the 11-mers was positive

## E6 30-38: HPV16 E6 9-mer peptide, residues 30-38 (IHDIILECV; Human Papilloma Virus 16; CHAIN residues 30-38 of the E6 protein)
T cell clones [1]; subject 7 dominant epitope, clones #12-7, #40-7, #59-7
  ELISPOT response (spot forming units) of T cell clones: positive
T cell clones [1]; [3]
  ELISPOT response (spot forming units) of T cell clones: positive; also recorded: similar; also recorded: large numbers of spot forming units

## E6 31-39: HPV16 E6 9-mer peptide, residues 31-39 (HDIILECVY; Human Papilloma Virus 16; CHAIN residues 31-39 of the E6 protein)
T cell clones [1]; [3]
  ELISPOT response (spot forming units) of T cell clones: positive; also recorded: similar; also recorded: large numbers of spot forming units

## LEDLLMGT (Human Papilloma Virus 16; CHAIN residues 79-86 of the E7 protein) [E7 79-86]
T cell clones [1]
  ELISPOT response of 27G6 clone: smaller response; also recorded: did not show any activity above the background

## HDIILECVYCKQQLL (Human Papilloma Virus 16; CHAIN residues 31-45 of the E6 protein) [E6 31-45]
T cell clones [1]; [4]
  screen-positive T cell clones positive for the 15-mer peptide on retest: four

## EDLLMGTL (Human Papilloma Virus 16; CHAIN residues 80-87 of the E7 protein) [E7 80-87]
T cell clones [1]
  ELISPOT response of 27G6 clone: smaller response; also recorded: partial IFN-γ secretion

## IHDIILEC (Human Papilloma Virus 16; CHAIN residues 30-37 of the E6 protein) [E6 30-37]
T cell clones [1]; [3]
  ELISPOT response (spot forming units) of T cell clones: Less number of spot forming units

## E6 61-85: pool of three overlapping 15-mers covering HPV16 E6 61-85 (YRDGNPYAVCDKCLKFYSKISEYRH; cysteine pairing not given here; also: pool of overlapping 15-mers)
CD8 T cell line; Subject 18
  CD8 T cell response to HPV 16 E6 region: x
CD8 T cell line; Subject 23
  CD8 T cell response to HPV 16 E6 region: x

## E6 31-37: HPV16 E6 7-mer, residues 31-37 (HDIILEC; Human Papilloma Virus 16; CHAIN residues 31-37 of the E6 protein)
T cell clones [1]; [3]
  ELISPOT response (spot forming units) of T cell clones: Less number of spot forming units

## PRKLPQLCTELQTTI (Human Papilloma Virus 16; CHAIN residues 16-30 of the E6 protein) [E6 16-30]
T cell clones [1]; subject 15
  T cell clones positive in screening ELISPOT: one
  retest of screen-positive T cell clones (ELISPOT): negative; also recorded: false positives

## E6 136-158: pool of overlapping 15-mers covering HPV16 E6 136-158 (RGRWTGRCMSCCRSSRYRRETQK; cysteine pairing not given here; also: pool of overlapping 15-mers)
CD8 T cell line; Subject 5
  CD8 T cell response to HPV 16 E6 region: x

## AFRDLCIVY (Human Papilloma Virus 16; CHAIN residues 53-61 of the E6 protein) [E6 53-61]
T cell clones [1]; subject 1 clones 2, 9 and 69
  ELISPOT response of E6-specific T cell clones: response
